The source of these data is US20050042308A1, “Pharmaceutical composition having cholagogic and litholytic effect and its preparation method” (priority 2001, published 2005).

The subject of data set [1] is gallbladder muscle stripe in vitro. The experiment in a line: Gallbladder smooth muscle contraction caused by acetylcholine. Further details: species or system guinea pig. As for the experimental part:
Krebs liquid culture plate, anatomize longitudinally to get 2 pieces of muscle stripe of gallbladder with 10 mm length and […] width. Place the muscle stripe into 37° C. constant temperature Mcrruary bath with Kmbs solution (20 ml), the lower end is fixed on the hook at the bottom of the bath, the upper end is connected to the energy transducer, adjust the oxygen flow gas bubble to tiny and uniform flow, the energy transducer is connected to physiological recorder with prepositive amplifier. Every time after adding test solution observes for more than 3 minutes. When reaching the biggest effect, timely rinse the bath with flushing solution three times with 15 minutes break. After the contraction curve becomes balanced, to make another experiment. […] Krebs solution should be prepared with double-distilled water). After adding acetylcholine, record the contraction curve of gallbladder muscle. From the contraction curve, we can see the amplitude of contraction curve rise. After contraction curve reaches peak-balance, add different concentration LDRS solution. After adding drug solution, the amplitude of contraction curve of gallbladder muscle stripe descends. Record the altitude of amplitude of every phase. The statistic method is below: before drug administration, from the upper and lower limit point of the amplitude contraction curve of gallbladder muscle stripe to respectively line a straight line parallel to the transverse coordinate axis, measure the altitude between the two parallel line as the normal amplitude (The lower line before drug administration is used as basal line). After contraction curve is stable, adding different concentration Ach solution, we can see the amplitude of contraction curve of gallbladder muscle stripe rise, through the peak of amplitude to line a straight line parallel to basal line and measure the altitude between the two parallel line as amplitude of Ach. After curve is stable, add different concentration LDRS stock solution and through the lowest point of amplitude to line parallel to basal line, measure the altitude between the basal line and the lowest line.

A further data set has as its system fever of the rat. The data set is described as follows: Fever of the rat caused by 2, 4-dinitrophenol. The data set is classed as in vivo. As to conditions: Aminopyrine 80(mg), Eulektrol 0.15 ml/kg. The procedure:
Get […] healthy male rats with 1 80˜220 g body weight, randomly separate them into 6 groups according to the body weight with 8 rats in each group. The rats in the 1st group are forced to take 0.5% CMC 10 ml/kg. The rats in the 2nd group are forced to take aminopyrine […]. The rats in 3rd group are forced to take Eulektrol 0.15 ml /kg. The rats in the 4th, 5th, 6th are respectively forced to take LDRS 0.077 ml, 0.154 ml, […]. 15 minutes later after drug administration SC 25 mg/ml 2,4-dinitrophenol in the middle of shoulder and back, then measure the anal temperature in 0 hour before drug administration, 0.25 hours, 0.5 hours, 1 hours, 2 hours, 4 hours after drug administration.

Data set [2] has as its system bile secretion of the rat. The data set is described as follows: Cholagogue experiment in rat (bile efflux coefficient). The class given is in vivo. As to conditions: Eulektrol 0.150 ml/kg; for bile efflux coefficient before 1 hour: before drug administration, Cholanic acid 100 mg (pure substance), Dehydrogenized Cholanic acid 100 mg (pure substance) groups; for (%) increase of bile efflux coefficient compared with control group, after 1 hour / (%) increase of bile efflux coefficient compared with control group, after 2 hours / (%) increase of bile efflux coefficient compared with control group, after 3 hours / (%) increase of bile efflux coefficient compared with control group, after 4 hours / bile efflux coefficient after 1 hour / bile efflux coefficient after 2 hours / bile efflux coefficient after 3 hours / bile efflux coefficient after 4 hours: into duodenum, Cholanic acid 100 mg, Dehydrogenized Cholanic acid 100 mg (pure substance). As for the experimental part: After grouping, the experimental rats are fasting for 16 hours before experiment; anesthetize these rats through ip ethyl carbamate (also named Urethane). After anesthesia, enlace the four limbs; incise the abdomen to find the pylorus of the stomach. Along the pylorus, find common bile duct. Use little forceps to deliminate the surface envelope and reveal the common bile duct, ligate the lower extremity, carefully shear a little ventage, insert plastic duct with external diameter 1 mm into the common bile duct proximal to the liver to drain the bile. After bile drainage volume is stable, record the bile collection volume every 0.5 hour, for two times.

A further data set deals with bilirubin in bile. The experiment in a line: The measure of bilirubin of bile. The class given is in vivo. The conditions noted are these: cholanic acid 0.1(g), Eulektrol 0.15(g), Dehydrogenized cholanic acid 0.1(g).
A further data set relates to cholelithiasis patients. As to conditions: cited from earlier work.
Data set [3] relates to auricular swollen of mouse caused by dimethylbenzene. The experiment in a line: Auricular inflammation of mouse caused by dimethylbenzene. The class given is in vivo. As to conditions: Eulektrol 0.15 ml/kg; Indothemacin 30 (mg).
A further data set deals with granuloma of rat. The data set is described as follows: Granuloma of rat caused by agar. The conditions noted are these: Prednisone 30 (mg). The class given is in vivo. The source says: Thereinto, the inhibition effect of moderates high dose group is compared with control group, P<0.05, P<0.01 respectively, showing significant inhibition effect.
The subject of data set [4] is ankle swollen of rat caused by carragheen. The experiment in a line: Ankle swollen of the rat caused by carragheen. The class given is in vivo. As to conditions: Eulektrol 0.15 ml/kg, Prednisone acetate 30(mg).
Setting [5] is: series with 8 muscle stripes, Ach 10^−4 ml alone, or LDRS (printed 10^−2 ml) added after Ach.
Where [6] appears, read: series with 13 muscle stripes, Ach 10^−4 ml alone, or LDRS 10^−2 ml added after Ach.

Marks after values point to notes of the source that are not given here.

Turning to `CC(=O)OCC[N+](C)(C)C` [Ach, acetylcholine], in data set [1] (setting [5]), the gallbladder contraction amplitude was found to be 32.73 ± 6.90 mm and the “variation rate of amplitude (normal value = 100.0)” value is 654.6%. In data set [1] (setting [6]), the gallbladder contraction amplitude is reported as 35.2 ± 6.84 mm and the “variation rate of amplitude (normal value = 100.0)” value is 541.5%.
Turning to `Cc1c(N(C)C)c(=O)n(-c2ccccc2)n1C` [Aminopyrine, aminopyrine], the “the body temperature variation after drug administration” value with fever of the rat (0.25 h) is −0.21 ± 0.52 °C; with fever of the rat (0.5 h), −0.05 ± 0.81 °C; in the data set on fever of the rat (1 h), 0.03 ± 0.79 °C; in the data set with fever of the rat (2 h), 0.49 ± 0.47 °C; in the data set on fever of the rat (4 h), 0.30 ± 0.67 °C.
`C[C@H](CCC(=O)O)[C@H]1CC[C@H]2[C@@H]3CCC4CCCC[C@]4(C)[C@H]3CC[C@]12C` (some centres unmarked) [Cholanic acid, cholanic acid]: in data set [2], the “bile efflux coefficient before 1 hour” value was 0.116 ± 0.04 ml(bile)/100 g · bw; the “(%) increase of bile efflux coefficient compared with control group, after 1 hour” value was found to be 6.4%; the “(%) increase of bile efflux coefficient compared with control group, after 2 hours” value is 26.8%; the “(%) increase of bile efflux coefficient compared with control group, after 3 hours” value is 123.6%. Besides, in data set [2], the “(%) increase of bile efflux coefficient compared with control group, after 4 hours” value is 45.1%; the “bile efflux coefficient after 1 hour” value is given as 0.166 ± 0.04 ml(bile)/100 g · bw; the “bile efflux coefficient after 2 hours” value is recorded as 0.189 ± 0.05 ml(bile)/100 g · bw; the “bile efflux coefficient after 3 hours” value is 0.246 ± 0.04 ml(bile)/100 g · bw. Moreover, the “bile efflux coefficient after 4 hours” value in data set [2] was 0.164 ± 0.04 ml(bile)/100 g · bw. In the data set with bilirubin in bile (1 h), this compound yielded a D-bil in bile of 67.3 ± 25.4 mmol/L, a F-bil in bile of 26.7 ± 20.1 mmol/L and a T-BIL in bile of 94.1 ± 37.9 mmol/L. Further, in the data set on bilirubin in bile (2 h), the D-bil in bile amounted to 60.8 ± 31.9 mmol/L, the F-bil in bile was 16.9 ± 12.8 mmol/L and the T-BIL in bile came out at 77.7 ± 38.9 mmol/L. Further, in the data set on bilirubin in bile (3 h), the D-bil in bile turned out to be 55.3 ± 18.2 mmol/L, the F-bil in bile is 27.2 ± 13.9 mmol/L and the T-BIL in bile amounted to 82.5 ± 29.0 mmol/L. In the data set on bilirubin in bile (4 h), this compound registered a D-bil in bile of 53.0 ± 31.6 mmol/L, a F-bil in bile of 28.3 ± 10.6 mmol/L and a T-BIL in bile of 81.3 ± 29.8 mmol/L. For the same compound, the “efficacy of the therapeutics (reducing the gallstone size, dissolving the gallstone or decreasing the gallstone)” value in the data set on cholelithiasis patients (clinical case report) is on record as “about 50%”. Also, the “patients with SGOT increase” value with cholelithiasis patients (treatment of the cholelithiasis) is listed as 20%.
For the compound `C[C@H](CCC(=O)O)[C@H]1CC[C@H]2[C@@H]3C(=O)C[C@@H]4CC(=O)CC[C@]4(C)[C@H]3CC(=O)[C@]12C` [Dehydrogenized Cholanic acid, dehydrogenized cholanic acid], in data set [2], the “bile efflux coefficient before 1 hour” value is listed as 0.116 ± 0.04 ml(bile)/100 g · bw; the “(%) increase of bile efflux coefficient compared with control group, after 1 hour” value is 5.8%; the “(%) increase of bile efflux coefficient compared with control group, after 2 hours” value is given as 57.0%; the “(%) increase of bile efflux coefficient compared with control group, after 3 hours” value amounted to 102.7%. In data set [2], the “(%) increase of bile efflux coefficient compared with control group, after 4 hours” value is reported as 85.8%; the “bile efflux coefficient after 1 hour” value is given as 0.165 ± 0.08 ml(bile)/100 g · bw; the “bile efflux coefficient after 2 hours” value is recorded as 0.234 ± 0.07 ml(bile)/100 g · bw; the “bile efflux coefficient after 3 hours” value is listed as 0.223 ± 0.05 ml(bile)/100 g · bw. Further, the “bile efflux coefficient after 4 hours” value in data set [2] is given as 0.210 ± 0.07 ml(bile)/100 g · bw. In addition, in the data set with bilirubin in bile (1 h), the D-bil in bile is listed as 57.8 ± 12.8 mmol/L, the F-bil in bile is recorded as 15.4 ± 4.9 mmol/L and the T-BIL in bile is recorded as 73.1 ± 14.1 mmol/L. In the data set with bilirubin in bile (2 h), this compound had a D-bil in bile of 43.4 ± 15.5 mmol/L, a F-bil in bile of 10.9 ± 11.2 mmol/L and a T-BIL in bile of 54.3 ± 23.9 mmol/L. In addition, in the data set with bilirubin in bile (3 h), the D-bil in bile is on record as 39.9 ± 10.2 mmol/L, the F-bil in bile is on record as 8.16 ± 3.1 mmol/L and the T-BIL in bile came out at 48.1 ± 14.8 mmol/L. For the same compound, in the data set on bilirubin in bile (4 h), the D-bil in bile was found to be 45.7 ± 16.4 mmol/L, the F-bil in bile is listed as 13.6 ± 5.69 mmol/L and the T-BIL in bile came to 59.3 ± 19.7 mmol/L.
Take `COc1ccc2c(c1)c(CC(=O)O)c(C)n2C(=O)c1ccc(Cl)cc1` [Indothemacin, indomethacin]: in data set [3], the “inhibition rate of auricular swelling” value amounted to 74.0%; the “the auricular weight difference between left and right” value came to 3.98 ± 2.5 mg/100 g.
In turn, `CC(=O)OCC(=O)[C@@]1(O)CC[C@H]2[C@@H]3CCC4=CC(=O)C=C[C@]4(C)[C@H]3C(=O)C[C@@]21C` [Prednisone acetate] showed an average granuloma coefficient in the data set with granuloma of rat of 0.20 ± 0.08. In the data set with granuloma of rat, the “inhibition rate of granuloma coefficient” value is 69.2** %. Besides, the size of ankle is listed as 2.34 ± 0.17 cm in data set [4] (2 h after drug); 2.10 ± 0.15 cm in data set [4] (4 h after drug); 1.90 ± 0.19 cm in data set [4] (8 h after drug); 2.10 ± 0.211 cm in data set [4] (16 h after drug); 2.00 ± 0.009 cm in data set [4] (20 h after drug).
